Measurements published in patent US5686628A, “Proline derivatives” (Zeneca Ltd., priority 1995, dated 1997).
Read-outs that look alike come from different tables or passages of the source. Where a SMILES comes first, the peptide text is derived from it. [ ]: non-standard residue; d: D form. The star is where a group is joined. ξ: configuration not given here. ξV = CC(C)C(N)C(=O)O; CF3 = FC(F)(F)*; Moc = COC(=O)*

Assays:
[1] = biological target: T1, human neutrophil elastase (HNE) (Homo sapiens, UniProt P08246); assay: Acute Hemorrhagic Assay (HNE-induced lung hemorrhage in hamsters); type: in vivo, Male Syrian hamsters; details: hamster, 50 μg/animal HNE intratracheal, 4 h, read-out: ED50 (inhibition of HNE-induced hemorrhage)
T1 sequence (P08246 30-267): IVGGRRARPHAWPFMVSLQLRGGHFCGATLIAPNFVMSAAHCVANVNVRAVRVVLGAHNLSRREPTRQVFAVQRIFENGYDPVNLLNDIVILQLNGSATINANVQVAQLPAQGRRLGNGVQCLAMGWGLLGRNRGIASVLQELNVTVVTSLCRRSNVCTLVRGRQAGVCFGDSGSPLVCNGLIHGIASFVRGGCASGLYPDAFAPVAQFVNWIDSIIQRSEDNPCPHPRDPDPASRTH
Method: This assay relies on monitoring only the amount of hemorrhage in the lung following intratracheal administration of human neutrophil elastase (HNE). Hemorrhage is quantified by disrupting erythrocytes recovered in lung lavage fluid and comparing that to dilutions of whole hamster blood. […] Male Syrian hamsters (fasted for 16-18 hours prior to use) are lightly anaesthetised with Brevital sodium (30 mg/kg i.p.). […] Four hours after enzyme administration, the animals are killed with an overdose of pentobarbital sodium, the thorax opened and the lungs and heart removed and the lungs cleared of extraneous material. The excised lungs are lavaged with three changes of 2 ml PBS via a tracheal cannula. The recovered lavages are pooled, the volumes (about 5 mL) are recorded and the lavages stored at 4 ° C. until assayed. For calculation of the amount of blood in each sample, the thawed lavages and a sample of whole hamster blood are sonicated to disrupt erythrocytes and appropriately diluted into individual wells of a 96-well microtiter plate. The optical densities (OD) of the disrupted lavages and blood samples are determined at 540 nm. The (μL blood equivalents) / (mL lavage) are determined by comparing the OD of the test samples with the OD of the standard curve prepared from whole hamster blood. The total μL equivalents of blood recovered is determined by multiplying recovered lavage volume by the (μL blood equivalents) / (mL lavage) for each sample.

[2] = biological target: T2, human leukocyte elastase (HLE) (Homo sapiens, UniProt P08246); assay: Inhibition of human leukocyte elastase (HLE) on low molecular weight peptide substrate methoxy-succinyl-alanyl-alanyl-prolyl-valine-p-nitroanilide; type: biochemical; details: kinetic determination, read-out: Ki (dissociation constant of the complex formed from the interaction of the inhibitor with HLE)
T2 sequence (P08246 30-267): T1 sequence (P08246 30-267)
Method: The potency of the compound of the invention (or a particular form thereof) to act as an inhibitor of human leukocyte elastase (HLE) on the low molecular weight peptide substrate methoxy-succinyl-alanyl-alanyl-prolyl-valine-p-nitroanilide is determined as described in U.S. Pat. No. 4,910,190. The potency of the compound is evaluated by obtaining a kinetic determination of the dissociation constant, Ki, of the complex formed from the interaction of the inhibitor with HLE.

[3] = Solubility in aqueous buffer; type: physicochemical; details: crystalline hydrated forms
[4] = Bioavailability; type: in vivo; details: crystalline hydrated forms
[5] = Hygroscopicity; type: physicochemical

## COC(=O)N[C@H](C(=O)N1CCC[C@H]1C(=O)NC(C(=O)C(F)(F)F)C(C)C)C(C)C (stereo partly drawn) [Example 1, (S)-1-[(S)-2-(methoxycarbonylamino)-3-methylbutyryl]-N-[2-methyl-1-(2,2,2-trifluoroacetyl)propyl]pyrrolidine-2-carboxamide] (Moc-Val-Pro-[ξV]-CF3)
[1]; oral dosing
  ED50: 4.5 mg/kg
[2]
  Ki: 36 nM

## COC(=O)N[C@H](C(=O)N1CCC[C@H]1C(=O)N[C@H](C(=O)C(F)(F)F)C(C)C)C(C)C [Example 2, (S)-1-[(S)-2-(methoxycarbonylamino)-3-methylbutyryl]-N-[(S)-2-methyl-1-(2,2,2-trifluoroacetyl)propyl]-pyrrolidine-2-carboxamide] (HELM PEPTIDE1{[COC(=O)[*:2]].V.P.V.[FC(F)(F)[*:1]]}$$$$V2.0)
[3]
  solubility in aqueous buffer: good solubility in aqueous buffer
[1]; iv, i.v. administration
  ED50: 0.6 mg/kg
[1]; oral dosing
  ED50: 1.9 mg/kg
[4]
  bioavailability: good bioavailability
[2]
  Ki: 9 nM
[5]; listed as Form A
  hygroscopicity: non-hygroscopic

## COC(=O)N[C@H](C(=O)N1CCC[C@H]1C(=O)N[C@H](C(=O)C(F)(F)F)C(C)C)C(C)C [Example 8] (HELM PEPTIDE1{[COC(=O)[*:2]].V.P.V.[FC(F)(F)[*:1]]}$$$$V2.0)
[5]; listed as Form B
  hygroscopicity: non-hygroscopic

## COC(=O)N[C@H](C(=O)N1CCC[C@H]1C(=O)N[C@H](C(=O)C(F)(F)F)C(C)C)C(C)C [Example 10] (HELM PEPTIDE1{[COC(=O)[*:2]].V.P.V.[FC(F)(F)[*:1]]}$$$$V2.0)
[5]; listed as "ketone" form
  hygroscopicity: hygroscopic
